Measurements reported in patent publication US12275731B2, “Azaindole inhibitors of wild-type and mutant forms of LRRK2” (DANA-FARBER CANCER INSTITUTE, INC., priority 2018, dated 2025).

What was measured:
Experiment in all cases: KinomeScan profiling
Type in all cases: binding
CAMK1 = CAMK1 (Homo sapiens, UniProt Q14012); conditions: CAMK1, 1 μM; read-out: % control
Method in brief: (§1)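 1 μM cpd in DMSO; 468-kinase panel; readout RLU. % ctrl = (cpd − pos ctrl)/(neg ctrl − pos ctrl) ×100. Pos ctrl = 0%, DMSO = 100%. Hit cut-off <35%.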

EGFR = EGFR (Homo sapiens, UniProt P00533); conditions: read-out: % control
Chain of EGFR (P00533 25-1210): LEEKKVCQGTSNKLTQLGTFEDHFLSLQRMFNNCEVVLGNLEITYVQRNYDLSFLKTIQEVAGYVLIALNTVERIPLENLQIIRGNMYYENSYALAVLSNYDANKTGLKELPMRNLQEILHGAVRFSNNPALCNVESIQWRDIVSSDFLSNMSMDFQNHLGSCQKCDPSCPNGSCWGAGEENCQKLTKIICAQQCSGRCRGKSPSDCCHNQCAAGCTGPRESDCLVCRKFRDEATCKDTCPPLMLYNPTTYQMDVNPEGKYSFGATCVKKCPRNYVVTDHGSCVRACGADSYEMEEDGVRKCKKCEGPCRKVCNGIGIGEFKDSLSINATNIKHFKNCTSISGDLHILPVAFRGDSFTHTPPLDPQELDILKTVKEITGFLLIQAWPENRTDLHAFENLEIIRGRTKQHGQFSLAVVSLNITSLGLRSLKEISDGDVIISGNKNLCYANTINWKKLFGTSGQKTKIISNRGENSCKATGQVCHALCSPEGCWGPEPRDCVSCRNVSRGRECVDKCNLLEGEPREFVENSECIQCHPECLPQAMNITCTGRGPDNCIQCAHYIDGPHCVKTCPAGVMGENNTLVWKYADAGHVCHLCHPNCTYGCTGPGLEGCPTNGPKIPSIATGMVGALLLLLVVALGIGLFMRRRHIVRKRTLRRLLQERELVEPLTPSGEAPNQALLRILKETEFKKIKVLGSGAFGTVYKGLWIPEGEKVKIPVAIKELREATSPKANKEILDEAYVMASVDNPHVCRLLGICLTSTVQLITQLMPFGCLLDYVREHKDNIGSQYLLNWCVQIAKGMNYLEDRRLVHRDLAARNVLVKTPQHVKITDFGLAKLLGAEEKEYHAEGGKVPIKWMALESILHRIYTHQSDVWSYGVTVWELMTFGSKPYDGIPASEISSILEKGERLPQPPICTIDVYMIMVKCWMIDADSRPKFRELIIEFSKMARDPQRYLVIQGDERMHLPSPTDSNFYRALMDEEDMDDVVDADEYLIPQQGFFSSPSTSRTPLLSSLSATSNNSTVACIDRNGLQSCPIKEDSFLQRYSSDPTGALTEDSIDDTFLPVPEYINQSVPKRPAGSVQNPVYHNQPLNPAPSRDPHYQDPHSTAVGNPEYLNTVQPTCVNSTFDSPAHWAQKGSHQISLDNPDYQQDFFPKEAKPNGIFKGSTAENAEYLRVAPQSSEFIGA
Method in brief: as §1

EPHA1 = biological target: T1, EPHA1 (Homo sapiens, UniProt P21709); conditions: EPHA1, 1 μM; read-out: % control
T1 sequence (P21709 26-976): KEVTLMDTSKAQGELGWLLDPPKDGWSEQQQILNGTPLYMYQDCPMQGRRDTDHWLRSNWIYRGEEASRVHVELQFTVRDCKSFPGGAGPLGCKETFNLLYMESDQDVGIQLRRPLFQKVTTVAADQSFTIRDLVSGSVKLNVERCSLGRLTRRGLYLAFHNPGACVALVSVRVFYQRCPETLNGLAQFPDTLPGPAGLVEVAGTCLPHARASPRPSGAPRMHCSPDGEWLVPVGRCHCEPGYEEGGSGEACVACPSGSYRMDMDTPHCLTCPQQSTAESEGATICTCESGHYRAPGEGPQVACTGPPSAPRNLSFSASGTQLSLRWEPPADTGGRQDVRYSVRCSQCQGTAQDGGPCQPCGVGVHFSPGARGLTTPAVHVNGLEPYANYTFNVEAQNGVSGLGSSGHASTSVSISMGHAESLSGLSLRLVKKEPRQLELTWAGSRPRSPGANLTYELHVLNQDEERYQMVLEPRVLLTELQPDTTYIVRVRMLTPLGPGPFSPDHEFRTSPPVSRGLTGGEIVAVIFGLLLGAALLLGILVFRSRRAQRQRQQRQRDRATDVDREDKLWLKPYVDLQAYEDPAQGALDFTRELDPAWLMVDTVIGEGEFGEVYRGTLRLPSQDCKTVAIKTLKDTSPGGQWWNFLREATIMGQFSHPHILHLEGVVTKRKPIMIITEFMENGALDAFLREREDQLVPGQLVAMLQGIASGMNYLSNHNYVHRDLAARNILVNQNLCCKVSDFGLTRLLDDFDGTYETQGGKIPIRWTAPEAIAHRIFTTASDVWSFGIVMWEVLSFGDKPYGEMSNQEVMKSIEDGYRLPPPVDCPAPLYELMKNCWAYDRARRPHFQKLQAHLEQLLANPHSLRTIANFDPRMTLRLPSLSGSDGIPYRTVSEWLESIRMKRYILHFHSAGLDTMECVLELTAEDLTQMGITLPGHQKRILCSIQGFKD
Method in brief: as §1

EPHB2 = biological target: T2, EPHB2 (Homo sapiens, UniProt P29323); conditions: EPHB2, 1 μM; read-out: % control
T2 sequence (P29323 19-1055): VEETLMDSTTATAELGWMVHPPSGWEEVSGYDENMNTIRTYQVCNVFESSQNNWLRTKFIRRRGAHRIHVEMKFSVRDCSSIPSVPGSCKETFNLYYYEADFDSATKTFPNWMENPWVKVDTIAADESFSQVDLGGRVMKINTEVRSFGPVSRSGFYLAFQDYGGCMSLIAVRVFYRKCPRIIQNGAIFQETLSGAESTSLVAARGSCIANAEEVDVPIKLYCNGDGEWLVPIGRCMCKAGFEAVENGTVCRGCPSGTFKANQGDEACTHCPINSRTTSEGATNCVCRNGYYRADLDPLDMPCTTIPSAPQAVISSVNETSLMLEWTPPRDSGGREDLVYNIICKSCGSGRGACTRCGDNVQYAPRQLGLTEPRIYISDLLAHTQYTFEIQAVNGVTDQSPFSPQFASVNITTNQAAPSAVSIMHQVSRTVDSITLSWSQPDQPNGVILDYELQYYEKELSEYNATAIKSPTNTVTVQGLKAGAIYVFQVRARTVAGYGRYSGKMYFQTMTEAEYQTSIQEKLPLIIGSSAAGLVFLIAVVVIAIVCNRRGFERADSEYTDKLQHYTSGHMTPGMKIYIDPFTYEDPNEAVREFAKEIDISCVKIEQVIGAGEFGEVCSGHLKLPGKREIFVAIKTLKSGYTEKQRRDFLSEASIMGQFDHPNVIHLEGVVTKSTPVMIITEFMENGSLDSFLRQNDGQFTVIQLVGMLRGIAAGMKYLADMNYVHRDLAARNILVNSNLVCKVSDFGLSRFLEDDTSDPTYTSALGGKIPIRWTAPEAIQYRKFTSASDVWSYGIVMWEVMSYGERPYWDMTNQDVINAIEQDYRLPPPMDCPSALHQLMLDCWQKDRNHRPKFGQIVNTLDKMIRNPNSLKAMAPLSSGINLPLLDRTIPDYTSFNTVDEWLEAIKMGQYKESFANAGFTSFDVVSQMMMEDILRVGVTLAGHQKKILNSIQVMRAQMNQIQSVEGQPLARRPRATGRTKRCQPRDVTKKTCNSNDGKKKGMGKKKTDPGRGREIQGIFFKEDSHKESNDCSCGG
Method in brief: as §1

[1] = biological target: T3, RSK1(Kin.Dom.2-C-terminal) (Homo sapiens, UniProt Q15418); conditions: read-out: % control
T3 construct: RSK1(Kin.Dom.2-C-terminal)
T3 sequence (Q15418 418-675 limits assumed): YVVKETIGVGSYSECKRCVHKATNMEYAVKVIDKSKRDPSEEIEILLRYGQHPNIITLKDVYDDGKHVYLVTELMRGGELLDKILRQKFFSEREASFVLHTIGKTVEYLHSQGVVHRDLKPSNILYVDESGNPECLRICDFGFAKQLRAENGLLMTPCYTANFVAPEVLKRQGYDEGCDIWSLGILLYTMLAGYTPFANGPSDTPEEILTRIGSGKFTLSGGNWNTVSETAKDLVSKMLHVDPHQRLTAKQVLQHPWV
Method in brief: as §1

TXK = biological target: T4, TXK (Homo sapiens, UniProt P42681); conditions: read-out: % control
T4 sequence (P42681 1-527): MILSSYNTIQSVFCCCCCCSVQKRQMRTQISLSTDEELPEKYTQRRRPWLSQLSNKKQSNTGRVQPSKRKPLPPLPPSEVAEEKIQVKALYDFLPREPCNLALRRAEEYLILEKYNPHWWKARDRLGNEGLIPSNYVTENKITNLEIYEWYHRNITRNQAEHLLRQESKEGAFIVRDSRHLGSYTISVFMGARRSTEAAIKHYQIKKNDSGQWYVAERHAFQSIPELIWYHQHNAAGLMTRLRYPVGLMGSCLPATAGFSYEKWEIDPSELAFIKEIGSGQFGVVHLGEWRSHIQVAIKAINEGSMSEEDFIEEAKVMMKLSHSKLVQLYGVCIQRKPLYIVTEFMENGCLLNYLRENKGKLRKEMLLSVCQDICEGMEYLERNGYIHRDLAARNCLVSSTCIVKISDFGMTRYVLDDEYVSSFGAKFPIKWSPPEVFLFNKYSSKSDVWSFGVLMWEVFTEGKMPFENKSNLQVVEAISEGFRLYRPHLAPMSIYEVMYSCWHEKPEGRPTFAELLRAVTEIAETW
Method in brief: as §1

Chain of CAMK1 (Q14012 whole entry): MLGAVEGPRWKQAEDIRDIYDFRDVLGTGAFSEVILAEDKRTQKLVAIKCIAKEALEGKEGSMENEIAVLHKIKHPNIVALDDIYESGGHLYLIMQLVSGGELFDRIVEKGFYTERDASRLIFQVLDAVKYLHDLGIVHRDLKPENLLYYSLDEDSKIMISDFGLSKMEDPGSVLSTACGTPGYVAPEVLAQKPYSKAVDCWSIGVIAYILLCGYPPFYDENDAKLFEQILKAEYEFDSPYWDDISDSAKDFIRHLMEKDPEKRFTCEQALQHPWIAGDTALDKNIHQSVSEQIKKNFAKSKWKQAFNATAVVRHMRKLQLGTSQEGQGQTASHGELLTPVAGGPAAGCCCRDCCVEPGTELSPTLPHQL

Structure (SMILES) | remaining binding at 1 µM (CAMK1) [%] | remaining binding at 1 µM (EGFR) [%] | remaining binding at 1 µM (EPHA1) [%] | remaining binding at 1 µM (EPHB2) [%] | remaining binding at 1 µM [1] [%] | remaining binding at 1 µM (TXK) [%]
CNc1c(-c2cnn([C@H]3CCN(C(C)=O)C[C@@H]3F)c2)cnc2[nH]cc(Cl)c12 [Compound 77, 1-((3S,4S)-4-(4-(3-chloro-4-(methylamino)-1H-pyrrolo[2,3-b]pyridin-5-yl)-1H-pyrazol-1-yl)-3-fluoropiperidin-1-yl)ethan-1-one] | 84 | 95 | 83 | 98 | 99 | 81
O=C(c1ccc(-c2cnc3[nH]cc(Cl)c3c2NC2CCCC2)cc1)N1CCC(N2CCOCC2)CC1 [Compound 101, (4-(3-chloro-4-(cyclopentylamino)-1H-pyrrolo[2,3-b]pyridin-5-yl)phenyl)(4-morpholinopiperidin-1-yl)methanone] | 98 | 97 | 76 | 97 | 88 | 84
CNc1c(-c2ccc(C(=O)N3CCC(N4CCOCC4)CC3)cc2)cnc2[nH]cc(Cl)c12 [Compound 96, (4-(3-chloro-4-(methylamino)-1H-pyrrolo[2,3-b]pyridin-5-yl)phenyl)(4-morpholinopiperidin-1-yl)methanone] | 87 | 100 | 81 | 97 | 100 | 81
